How the values were obtained:
[1] = molecular target: T1, recombinant, human protein tyrosine phosphatase (PTP) 1B (hPTP1B) (Homo sapiens, UniProt P18031); assay: Inhibition of tri-phosphorylated insulin receptor dodecaphosphopeptide dephosphorylation by hPTP1B; type: biochemical; conditions: 50 μM IR triphosphopeptide substrate, 5 min preincubation and 5 min reaction at 37° C., malachite green-ammonium molybdate phosphate detection
T1 construct: made in house
T1 sequence (P18031 1-435): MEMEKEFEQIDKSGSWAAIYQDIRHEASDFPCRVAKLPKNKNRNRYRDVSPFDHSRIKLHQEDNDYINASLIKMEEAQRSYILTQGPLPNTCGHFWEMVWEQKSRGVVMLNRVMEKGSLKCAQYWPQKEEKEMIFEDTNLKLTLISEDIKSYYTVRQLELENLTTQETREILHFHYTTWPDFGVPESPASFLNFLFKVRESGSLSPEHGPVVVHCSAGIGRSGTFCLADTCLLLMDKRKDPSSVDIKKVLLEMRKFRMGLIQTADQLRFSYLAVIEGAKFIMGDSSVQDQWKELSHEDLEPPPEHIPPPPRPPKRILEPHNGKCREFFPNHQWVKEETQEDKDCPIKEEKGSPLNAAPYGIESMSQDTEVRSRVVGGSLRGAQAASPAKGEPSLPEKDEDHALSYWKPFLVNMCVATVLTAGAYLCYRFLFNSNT

Structure (SMILES) | melting point | IC50 [1] [µM]
COc1cccc(-c2cccc(-c3cc(OC)cc(C(=O)N(C)CCCCCCCCc4ccccc4)c3)c2OCC(=O)O)c1 [Example 21, {3,3″-Dimethoxy-5″-[methyl-(8-phenyl-octyl)-carbamoyl]-[1,1′;3′,1″]terphenyl-2′-yloxy}-acetic acid] | 148.9 to 149.7 °C | 0.88
O=C(O)COCCOc1c(-c2cc(Cl)cc(Cl)c2)cc(C(=O)NCCCCCCc2ccccc2)cc1-c1cc(Cl)cc(Cl)c1 [Example 22] | 78.5 to 79.9 °C | 0.25
COc1ccc(-c2cc(C(=O)NCCCCCCCCc3ccccc3)cc(-c3ccc(OC)cc3)c2OCC(=O)[O-])cc1.[Na+] [Example 23, [4,4″-Dimethoxy-5′-(8-phenyl-octylcarbamoyl)-[1,1′;3′,1″]terphenyl-2′yloxy]acetic acid sodium salt] | > 95 °C | 0.365
Cc1cc(COCCCCCCNC(=O)c2cc(-c3ccc(F)c(Cl)c3)c(OCC(=O)O)c(-c3ccc(F)c(Cl)c3)c2)c(C)o1 [Example 26, {3,3″-Dichloro-5′-(6-(2,5-dimethyl-furan-3-ylmethoxy)-hexylcarbamoyl]-4-4″-difluoro-[1,1′;3′,1″]terphenyl-2′-yloxy}-acetic acid] | 90 to 91.2 °C | 0.207
Cc1cc(COCCCCCCNC(=O)c2cc(-c3cccc(C(F)(F)F)c3)c(OCC(=O)O)c(-c3cccc(C(F)(F)F)c3)c2)c(C)o1 [Example 30, {5′-[6-(2,5-Dimethyl-furan-3-ylmethoxy)-hexylcarbamoyl]-3,3″-bis-trifluoromethyl-[1,1′;3′,1″]terphenyl-2′-yloxy}-acetic acid] | 107.9 to 108.5 °C | 0.22
CCCCCCCCCCCCCCCCNc1c(Nc2cc(-c3ccccc3)c(OCC(=O)O)c(-c3ccccc3)c2)c(=O)c1=O [Example 32, [5′-(2-Hexadecylamino-3,4-dioxo-cyclobut-1-enylamino)-[1,1′;3′,1″]terphenyl-2′-yloxy]-acetic acid] | 132.5 to 133.7 °C | 0.017
CCCCCCCCCCCCCCCCCCOc1cc(-c2ccccc2)c(OCC(=O)O)c(-c2ccccc2)c1 [Example 36, (5′-Octadecyloxy-[1,1′;3′,1″]terphenyl-2′-yloxy)-acetic acid] | 90.5 to 92 °C | 0.024
O=C(O)COc1c(-c2ccccc2)cc(-c2c3ccccc3cc3sc4ccccc4c23)cc1-c1ccccc1 [Example 37, (5′-Benzo[b]naphtho[2,3-d]thiophen-11-yl-[1,1′;3′,1″]terphenyl-2′-yloxy)-acetic acid] | > 136 °C (dec.) | 0.118
CCCCCCCCOc1cc(-c2cccc(Cl)c2)c(OCC(=O)O)c(-c2cccc(Cl)c2)c1 [Example 46, (3,3″-Dichloro-5′-octyloxy-[1,1′;3′,1″]terphenyl-2′-yloxy)acetic acid] | 113 to 115.5 °C | 0.121
CCCCCCCCOc1cc(-c2cccc(NC(C)=O)c2)c(OCC(=O)O)c(-c2cccc(NC(C)=O)c2)c1 [Example 47, (3,3″-Bis-acetylamino-5′-octyloxy-[1,1′;3′,1″]terphenyl-2′-yloxy)acetic acid] | > 100 °C (dec.) | 0.3
CCCCCCCCOc1cc(-c2cccc(C(F)(F)F)c2)c(OCC(=O)O)c(-c2cccc(C(F)(F)F)c2)c1 [Example 48, (5′-Octyloxy-3,3″-bis-trifluoromethyl-[1,1′;3′,1″]terphenyl-2′-yloxy)acetic acid] | 75 to 77 °C | 0.145
CCCCCCCCOc1cc(-c2cccc([N+](=O)[O-])c2)c(OCC(=O)O)c(-c2cccc([N+](=O)[O-])c2)c1 [Example 49, (3,3″-Dinitro-5′-octyloxy-[1,1′;3′,1″]terphenyl-2′-yloxy)acetic acid] | 129 to 132 °C | 0.4
O=C(O)COc1c(-c2cccc(Cl)c2)cc(C(=O)NCCCCCCc2ccccc2)cc1-c1cccc(Cl)c1 [Example 80, [3,3″-Dichloro-5′-(6-phenyl-hexylcarbamoyl)-[1,1′;3′,1″]terphenyl-2′-yloxy]acetic acid] | 178 to 181 °C | 0.6
COc1ccc(-c2cc(C(=O)N(C)CCCCCCCCc3ccccc3)cc(-c3cccc(C(F)(F)F)c3)c2OCC(=O)O)cc1 [Example 81, {4″-Methoxy-5′-[methyl-(8-phenyl-octyl)-carbamoyl]-3-trifluoromethyl-[1,1′;3′1″]-terphenyl-2′-yloxy}acetic acid] | > 39 °C (dec.) | 0.33
CN(CCCCCCCCc1ccccc1)C(=O)c1cc(-c2cccc(Cl)c2)c(OCC(=O)O)c(-c2cccc(Cl)c2)c1 [Example 82, {3,3″-Dichloro-5′-[methyl-(8-phenyl-octyl)-carbamoyl]-[1,1′;3′1″]terphenyl-2′-yloxy}acetic acid] | > 44 °C (dec.) | 0.179
O=C(O)COc1c(-c2cccc(F)c2)cc(C(=O)NCCCCCCCCc2ccccc2)cc1-c1cccc(F)c1 [Example 83, [3,3″-Difluoro-5′-(8-phenyl-octylcarbamoyl)-[1,1′;3′,1″]terphenyl-2′-yloxy]acetic acid] | > 58 °C (dec.) | 0.536
CN(CCCCCCCCc1ccccc1)C(=O)c1cc(-c2cccc(F)c2)c(OCC(=O)O)c(-c2cccc(F)c2)c1 [Example 84] | > 43 °C (dec.) | 1.03
O=C(O)COc1c(-c2cccc(Cl)c2)cc(C(=O)NCCCCCCCCSc2nc3ccccc3o2)cc1-c1cccc(Cl)c1 [Example 87, {5′-[8-(Benzoxazol-2-ylsulfanyl)-octylcarbamoyl]-3,3″-dichloro-[1,1′;3′1″]-terphenyl-2′-yloxy}acetic acid] | > 68 °C (dec.) | 0.332
O=C(O)COc1c(-c2cccc(Cl)c2)cc(C(=O)NCCCCCCCCn2ccc3ccccc32)cc1-c1cccc(Cl)c1 [Example 88, [3,3″-Dichloro-5′-(8-indol-1-yl-octylcarbamoyl)-[1,1′;3′1″]terphenyl-2′-yloxy]acetic acid] | > 84 °C (dec.) | 0.137
N#Cc1cccc(OCCCCCCCCNC(=O)c2cc(-c3cccc(Cl)c3)c(OCC(=O)O)c(-c3cccc(Cl)c3)c2)c1 [Example 89, {3,3″-Dichloro-5′-[8-(3-cyano-phenoxy)-octylcarbamoyl]-[1,1′;3′1″]terphenyl-2′-yloxy}acetic acid] | > 61 °C (dec.) | 0.173
O=C(O)COc1c(-c2cccc(Cl)c2)cc(C(=O)NCCCCCCCCOCc2ccc(Cl)cc2)cc1-c1cccc(Cl)c1 [Example 90, {3,3″-Dichloro-5′-[8-(4-chloro-benzyloxy)-octylcarbamoyl]-[1,1′;3′1″]terphenyl-2′-yloxy}acetic acid] | 128 to 131 °C | 0.1
Cc1cc(OCCCCCCCCNC(=O)c2cc(-c3cccc(Cl)c3)c(OCC(=O)O)c(-c3cccc(Cl)c3)c2)ccc1F [Example 91, {3,3″-Dichloro-5′-[8-(4-fluoro-3-methyl-phenoxy)-octylcarbamoyl]-[1,1′;3′1″]terphenyl-2′-yloxy}acetic acid] | 138 to 140 °C | 0.313
O=C(O)COc1c(-c2cccc(Cl)c2)cc(C(=O)NCCCCCCCCn2ccnc2)cc1-c1cccc(Cl)c1 [Example 92, [3,3″-Dichloro-5′-(8-imidazol-1-yl-octylcarbamoyl)-[1,1′;3′1″]terphenyl-2′-yloxy]acetic acid] | > 109 °C (dec.) | 0.471
O=C(O)COc1c(-c2cccc(Cl)c2)cc(C(=O)NCCCCCCOC(=O)Nc2ccc(Oc3ccccc3)cc2)cc1-c1cccc(Cl)c1 [Example 95, {3,3″-Dichloro-5′-[6-(4-phenoxy-phenylcarbamoyloxy)-hexylcarbamoyl]-[1,1′;3′1″]terphenyl-2′-yloxy}acetic acid] | > 75 °C (dec.) | 0.641
O=C(O)COc1c(-c2cccc(Cl)c2)cc(C(=O)NCCCCCCCCn2ccc3cc(F)ccc32)cc1-c1cccc(Cl)c1 [Example 96, {3,3″-Dichloro-5′-[8-(5-fluoro-indol-1-yl)-octylcarbamoyl]-[1,1′;3′1″]terphenyl-2′-yloxy}acetic acid] | 141 to 144 °C | 0.137
COc1ccc2c(ccn2CCCCCCCCNC(=O)c2cc(-c3cccc(Cl)c3)c(OCC(=O)O)c(-c3cccc(Cl)c3)c2)c1 [Example 97, {3,3″-Dichloro-5′-[8-(5-methoxy-indol-1-yl)-octylcarbamoyl]-[1,1′;3′1″]terphenyl-2′-yloxy}acetic acid] | > 70 °C (dec.) | 0.186
Cc1ccc2c(c1)cc(C)n2CCCCCCCCNC(=O)c1cc(-c2cccc(Cl)c2)c(OCC(=O)O)c(-c2cccc(Cl)c2)c1 [Example 98, {3,3″-Dichloro-5′-[8-(2,5-dimethyl-indol-1-yl)-octylcarbamoyl]-[1,1′;3′1″]-terphenyl-2′-yloxy}acetic acid] | > 172 °C (dec.) | 0.132
COc1ccc2c(c1)cc(C)n2CCCCCCCCNC(=O)c1cc(-c2cccc(Cl)c2)c(OCC(=O)O)c(-c2cccc(Cl)c2)c1 [Example 99, {3,3″-Dichloro-5′-[8-(5-methoxy-2-methyl-indol-1-yl)-octylcarbamoyl]-[1,1′;3′1″]-terphenyl-2′-yloxy}acetic acid] | > 75 °C (dec.) | 0.267
